Assay results reported in patent US6166030A, “Compounds” (priority 1997, dated 2000).

Test system: endothelial nitric oxide synthase
Test: Screen for endothelial nitric oxide synthase inhibiting activity
Assay type: biochemical, human
Settings: reference standard at 1 μM; endothelial enzyme from HUVECs

inhibition of nitric oxide synthetase: 70-90%
SMILES: N=C(NCCC[C@H](N)C(=O)O)N[N+](=O)[O-] [N-nitro-L-arginine]
